Source: patent US5545669A, “Anti-inflammatory compounds” (priority 1994, dated 1996)

What was measured:
human neutrophils [1] = experiment: Assay (e): mobilization of labeled arachidonic acid into 1-ether phospholipids in intact cells; assay type: cell-based; conditions: non-stimulated human neutrophils, 2 hrs
Method: Measurement of the effect of CoA-IT inhibitors on the transfer of [^3 H]arachidonate into 1-ether phospholipids in non-stimulated inflammatory cells can be accomplished by general application of the following specific method. Human neutrophils were isolated and resuspended (5×10^7 /ml) in Hanks Balanced Salt Solution (HBSS; Gibco). [5,6,8,9,11,12,14,15-^3 H]-Arachidonic acid (100 Ci/mmol; New England Nuclear) complexed to 200 μl HBSS containing 0.25 mg/ml HSA was added to the cell suspension (1 μCi/ml). The cells were incubated with gentle shaking at 37° C. for 5 min. The reaction was terminated by the addition of 40 ml ice-cold HBSS containing HSA (0.25 mg/ml). The cells were then removed from the supernatant fluid by centrifugation (225 g, 8 min). Unincorporated [^3 H]-arachidonic acid was completely removed by two more washes of HBSS containing 0.25 mg/mi HSA. The neutrophils were resuspended in fresh buffer, exposed to various concentrations of a CoA-IT inhibitor or its vehicle and incubated without stimulation for 2 hrs. […] The phospholipid subclasses were separated by TLC in benzene/hexane/ethyl ether (50:45:4, v/v), located by image analysis (Bioscan) and the amount of radioactivity in each class was determined by zonal scraping and liquid scintillation counting.

human neutrophils [2] = experiment: Assay (c): Arachidonic acid release assay, A23187-challenged human neutrophils; assay type: cell-based; conditions: calcium ionophore A23187 2 μM
Method: Human neutrophils are obtained in the laboratory using three different methods. One method uses leukophoresis packs from normal humans and neutrophils are isolated using the histopaque-1077 technique. The blood is centrifuged at 300×g for 10 minutes. The cell pellets are resuspended in PBS composed of 137 mM NaCI, 8.8 mM Na2HPO4, 1.5 mM KH2 PO4, 2.7 mM KCI (Dulbecco's Gibco Laboratories, Long Island, N.Y.) and layered over histopaque-1077 (Sigma, St. Louis, Mo.). The pellets are collected after centrifugation (300×g for 30 minutes) and washed once in PBS. The cell pellets are exposed briefly to deionized water to lyse any erythrocytes. The remaining cells are collected by centrifugation, suspended in PBS, counted and identified after cytospinning and staining. The final leukocyte preparation will be of greater than 95% purity and viability.
The second method isolates human neutrophils from fresh heparinized normal blood using the Histopaque-1077 technique. […] The remaining cells are collected by centrifugation, suspended in PBS, counted and identified after cytospinning and staining. […]
The third method isolates human neutrophils from freshly drawn heparinized normal blood using the Percoll technique. […] The neutrophils are suspended in PBS, counted and identified after cytospinning and staining. […]

SMILES: O=C(O)c1ccccc1Oc1ccc(C(F)(F)F)cc1NS(=O)(=O)c1cc(C(F)(F)F)cc(C(F)(F)F)c1 [Example 1, 2-[2-[3,5-Bis(trifluoromethyl)phenylsulfonamido]-4-trifluoromethylphenoxy]benzoic acid]
- blocking the movement of arachidonic acid into 1-ether phospholipids (human neutrophils [1]): positive activity
- inhibition of arachidonic acid release (human neutrophils [2]): positive activity
